Earlier results on 1 compound are cited in patent publication US9895453B1, “Shiny ultrasound gel” (priority 2016, dated 2018).

Each structure is given as a SMILES string.

One series has as its system Ps. cepacia. As to conditions: initial inoculum 2.7 × 10^6 per gram product, 0.7% Suttocide A.

As for `O=C([O-])CNCO.[Na+]` [Suttocide® A, Sodium Hydroxymethylglycinate], the “organism growth (count) at 48 hours” value is given as under 10 in the series with A. niger (A. niger, 48 hours, initial inoculum 8.0 × 10^6 per gram product, 0.7% Suttocide A); under 10 in the series with Ps. aeruginosa (Ps. aeruginosa, 48 hours, initial inoculum 9.5 × 10^6 per gram product, 0.7% Suttocide A); under 10 in the series on Ps. cepacia (48 hours); under 10 in the series with E. Coli (E. Coli, 48 hours, initial inoculum 6.0 × 10^6 per gram product, 0.7% Suttocide A); under 10 in the series with C. ablicans (C. ablicans, 48 hours, initial inoculum 4.3 × 10^6 per gram product, 0.7% Suttocide A); under 10 in the series on Staph aureus (Staph aureus, 48 hours, initial inoculum 7.3 × 10^6 per gram product, 0.7% Suttocide A). For the same compound, the “organism growth (count) at 7 days” value is under 10 in the series on A. niger (A. niger, 7 days, initial inoculum 8.0 × 10^6 per gram product, 0.7% Suttocide A); under 10 with Ps. aeruginosa (Ps. aeruginosa, 7 days, initial inoculum 9.5 × 10^6 per gram product, 0.7% Suttocide A); under 10 with Ps. cepacia (7 days); under 10 in the series with E. Coli (E. Coli, 7 days, initial inoculum 6.0 × 10^6 per gram product, 0.7% Suttocide A); under 10 with C. ablicans (C. ablicans, 7 days, initial inoculum 4.3 × 10^6 per gram product, 0.7% Suttocide A); under 10 in the series with Staph aureus (Staph aureus, 7 days, initial inoculum 7.3 × 10^6 per gram product, 0.7% Suttocide A). Moreover, the “organism growth (count) at 28 days” value with A. niger (A. niger, 28 days, initial inoculum 8.0 × 10^6 per gram product, 0.7% Suttocide A) is under 10; in the series on Ps. aeruginosa (Ps. aeruginosa, 28 days, initial inoculum 9.5 × 10^6 per gram product, 0.7% Suttocide A), under 10; in the series with Ps. cepacia (28 days), under 10; with E. Coli (E. Coli, 28 days, initial inoculum 6.0 × 10^6 per gram product, 0.7% Suttocide A) it was under 10; with C. ablicans (C. ablicans, 28 days, initial inoculum 4.3 × 10^6 per gram product, 0.7% Suttocide A), under 10; in the series with Staph aureus (Staph aureus, 28 days, initial inoculum 7.3 × 10^6 per gram product, 0.7% Suttocide A) it was under 10. In addition, the “kills at a concentration of” value with A. niger (Aspergillus niger (Aspergillus brasiliensis), TABLE 1) is given as 0.7%; with Ps. aeruginosa (Pseudomonas aeruginosa, TABLE 1), 0.7%; in the series with E. Coli (Escheria coli, TABLE 1) it was 0.7%; with C. ablicans (candida albicans, TABLE 1) it was 0.7%; in the series on Staph aureus (Staphylococcus aureus, TABLE 1), 0.7%.
